According to publication PMC3202585, “Venom of Parasitoid, Pteromalus puparum, Suppresses Host, Pieris rapae, Immune Promotion by Decreasing Host C-Type Lectin Gene Expression” (PLoS ONE, 2011):

Target: T1, Pr-CTL (Pieris rapae, UniProt G5CJE6)
T1 construct: two tandem CRDs (residues 41-151 and 184-302)
T1 sequence (G5CJE6 20-313): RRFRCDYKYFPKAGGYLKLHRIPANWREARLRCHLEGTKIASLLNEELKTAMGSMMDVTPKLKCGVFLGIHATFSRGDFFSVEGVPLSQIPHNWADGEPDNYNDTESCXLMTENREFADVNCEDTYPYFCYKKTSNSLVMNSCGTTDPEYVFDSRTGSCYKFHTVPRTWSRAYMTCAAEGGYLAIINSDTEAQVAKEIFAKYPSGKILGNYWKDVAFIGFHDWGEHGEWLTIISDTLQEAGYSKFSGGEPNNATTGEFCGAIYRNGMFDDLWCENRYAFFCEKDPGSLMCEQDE
Test: carbohydrate binding assay (data not shown)
Settings: calcium-dependent, described as agglutination of carbohydrates

SMILES	carbohydrate binding assay (data not shown)
OC[C@H]1OC(O)[C@H](O)[C@@H](O)[C@H]1O (some centres unmarked) [galactose]	agglutination of different kind of carbohydrates, such as mannose, galactose and peptidoglycan (data not shown)
OC[C@H]1OC(O)[C@@H](O)[C@@H](O)[C@@H]1O (some centres unmarked) [mannose]	recombinant Pr-CTL possesses the calcium-dependent agglutination of different kind of carbohydrates, such as mannose
